Laboratory results published in patent US11931365B2, “Use of PPAR-delta agonists in the treatment of disease” (Reneo Pharmaceuticals, Inc., priority 2022, dated 2024).
Marks after values point to notes of the source that are not given here.

How the values were obtained:
[1] = Variable temperature XRPD (heating); assay type: physicochemical; conditions: heating to 110° C.
Method: For variable temperature (VT-XRPD) experiments the samples were prepared and analyzed in an Anton Paar chromed sample holder. A heating/cooling rate of 10° C./min was used with a 2 min isothermal hold before the measurement started. The measurement parameters are as per the standard screening data collection method (detailed above). Measurements were taken at the following temperatures: […]

[2] = Stability of solid state forms (storage, drying), XRPD; assay type: physicochemical
Method: Samples were assessed for stability under ambient or static storage conditions of 25° C./[…] and 40° C./75% RH for 7 or 10 days. The samples were then re-analyzed by XRPD. Subsequent XRPD analysis results for the crystalline forms are described below: […]

[3] = Gravimetric Vapor Sorption (GVS); assay type: physicochemical; conditions: 25° C., w/w
Method: Sorption isotherms were obtained using a SMS DVS Intrinsic moisture sorption analyzer, controlled by DVS Intrinsic Control software. The sample temperature was maintained at 25° C. by the instrument controls. The humidity was controlled by mixing streams of dry and wet nitrogen, with a total flow rate of 200 ml/min. The relative humidity was measured by a calibrated Rotronic probe (dynamic range of 1.0-100% RH), located near the sample. The weight change, (mass relaxation) of the sample as a function of % RH was constantly monitored by a microbalance (accuracy ±0.005 mg).
Typically, 5-30 mg of sample was placed in a tared mesh stainless steel basket under ambient conditions. The sample was loaded and unloaded at 40% RH and 25° C. (typical room conditions). A moisture sorption isotherm was performed as outlined below (2 scans per complete cycle). The standard isotherm was performed at 25° C. at 10% RH intervals over a 0-90% RH range. Typically, a double cycle (4 scans) was carried out. Data analysis was carried out within Microsoft Excel using the DVS Analysis Suite.

[4] = XRPD re-analysis after GVS isotherm; assay type: physicochemical; conditions: after isotherm at 90% RH and 25° C.
Method: The samples were recovered after completion of the isotherm experiment at 90% RH and 25° C. and re-analyzed by XRPD.

[5] = Competitive slurries Form 1 / Form 2 (thermodynamic stability); assay type: physicochemical; conditions: water activities 0.4-0.8; 5, 25, 50° C.
Method: Competitive slurries aiming to determine the order of stability between Form 1 and Form 2 were performed in a range of water activities (0.4-0.8).
Crystalline Form 1 (2 g) and Crystalline Hydrate Form 2 (2 g) were lightly ground together using a mortar and pestle and then mixed using a roller mixer for approximately 2 hours. An XRPD was collected on this sample.
Saturated solutions at 5° C./25° C. were prepared by suspending the mixed sample (200 mg) in 4 ml of the selected solvent and saturated solutions were prepared at 50° C. by suspending the mixed sample (100 mg) in 1 ml of the selected solvent. The saturated solutions were left stirring for 3 hrs at 25° C. and 50° C. The saturated solutions at 25° C. were filtered and split into solutions at 5° C. and 25° C. The mixed sample (50 mg) was added to the filtered solutions. Two control samples of Form 2 (50 mg) were prepared in 1 ml of acetone:water (99:1) and EtOH:water (95:5) and left stirring at 5° C., 25° C. and 50° C.

CPT2-deficient myoblasts = conditions: Djouadi 2005; cited from earlier work
CPT2 = conditions: patient fibroblasts, mild CPT2 mutations; Djouadi 2003; cited from earlier work
[6] = tested on: patient fibroblasts (VLCAD, LCHAD, TFP deficiencies); conditions: Goddeeris 2017; cited from earlier work
[7] = listed as crystalline Form 4 of Compound II

SMILES: Cc1cc(OC/C=C(/c2ccc(F)cc2)c2ccc(C#CCN3CCOCC3)cc2)ccc1OCC(=O)[O-].[Na+] [Form 4, sodium (E)-2-(4-((3-(4-fluorophenyl)-3-(4-(3-morpholinoprop-1-yn-1-yl)phenyl)allyl)oxy)-2-methylphenoxy)acetate]
- XRPD after heating [1]: unchanged
- XRPD form after storage ([2]; 25° C./97% RH/7 days): Form 2
- XRPD form after storage ([2]; 25° C./97% RH/7 days, listed as crystalline Form 4 of Compound II): converts to Form 2
- XRPD form after storage ([2]; 40° C./75% RH/7 days): Form 1
- XRPD form after storage ([2]; 40° C./75% RH/7 days, listed as crystalline Form 4 of Compound II): converts to Form 1
- Reversible Water Uptake between 0-90% RH [3]: ~23%
- Reversible Water Uptake between 0-90% RH [3, 7]: ~23%
- Solid State Form After GVS (XRPD) [4]: Form 2
- Solid State Form After GVS (XRPD) [4, 7]: converts to Form 2

SMILES: Cc1cc(OC/C=C(/c2ccc(F)cc2)c2ccc(C#CCN3CCOCC3)cc2)ccc1OCC(=O)[O-].[Na+] [Form 1, sodium (E)-2-(4-((3-(4-fluorophenyl)-3-(4-(3-morpholinoprop-1-yn-1-yl)phenyl)allyl)oxy)-2-methylphenoxy)acetate]
- time to complete conversion to Form 2 ([2]; 25° C./97% RH): 4 weeks
- XRPD form after storage ([2]; 25° C./97% RH/7 days): Form 2
- XRPD form after storage ([2]; 40° C./75% RH/7 days): Unchanged (Form 1)
- Reversible Water Uptake between 0-90% RH [3]: ~13.0% †
- Reversible Water Uptake between 0-90% RH ([3]; listed as crystalline Form 1 of Compound II): ~13.0%
- Solid State Form After GVS (XRPD) [4]: Unchanged (Form 1)
- form found in competitive slurries of Form 1 and Form 2 [5]: present in most cases with no evidence of Form 2

SMILES: CC(C)(Oc1ccc(CCNC(=O)c2ccc(Cl)cc2)cc1)C(=O)O [bezafibrate, 2-(4-{2-[(4-Chlorobenzoyl)amino]ethyl}phenoxy)-2-methylpropanoic acid]
- FAO (CPT2-deficient myoblasts): able to restore FAO
- activity of the deficient enzyme (CPT2) (CPT2): pharmacological enhancement

SMILES: Cc1cnc(-c2ccc(C(F)(F)F)cc2)n1Cc1ccccc1OCCC[C@@H](C)CC(=O)O [MA-0211]
- fatty acid oxidation [6]: improvements
